Activity calls are given as the source filed them. How the calls were made is not given here.

The test system of the data set is CCRIS mutagenicity, Ames/micronucleus/aberration tests. As to the kind of experiment: CCRIS mutagenicity studies.
Setting [1] is: Test System: AMES SALMONELLA TYPHIMURIUM, Strain/Indicator: TA98, Metabolic Activation: NONE, Method: PREINCUBATION
Setting [2] is: Test System: AMES SALMONELLA TYPHIMURIUM, Strain/Indicator: TA100, Metabolic Activation: NONE, Method: PREINCUBATION
Where [3] appears, read: Test System: AMES SALMONELLA TYPHIMURIUM, Strain/Indicator: TA1535, Metabolic Activation: NONE, Method: PREINCUBATION
[4] abbreviates: Test System: AMES SALMONELLA TYPHIMURIUM, Strain/Indicator: TA1537, Metabolic Activation: NONE, Method: PREINCUBATION
Where [5] appears, read: Test System: AMES SALMONELLA TYPHIMURIUM, Strain/Indicator: TA98, Metabolic Activation: NONE, Method: STANDARD PLATE.
Where [6] appears, read: Test System: AMES SALMONELLA TYPHIMURIUM, Strain/Indicator: TA100, Metabolic Activation: NONE, Method: STANDARD PLATE.
Where [7] appears, read: Test System: AMES SALMONELLA TYPHIMURIUM, Strain/Indicator: TA98, Metabolic Activation: RAT, LIVER, S-9, PHENOBARBITAL AND 5,6-BENZOFLAVONE, Method: PREINCUBATION
[8] abbreviates: Test System: AMES SALMONELLA TYPHIMURIUM, Strain/Indicator: TA100, Metabolic Activation: RAT, LIVER, S-9, PHENOBARBITAL AND 5,6-BENZOFLAVONE, Method: PREINCUBATION

Consider `CN(c1nccc(=O)[nH]1)C1CCN(c2nc3ccccc3n2Cc2ccc(F)cc2)CC1`, for which the mutagenic call under setting [1] was “inactive; negative”; the mutagenic call (Test System: AMES SALMONELLA TYPHIMURIUM, Strain/Indicator: TA98, Metabolic Activation: RAT LIVER S-9, PHENOBARBITAL AND 5,6-BENZOFLAVONE, Method: PREINCUBATION) is “inactive; negative”; the mutagenic call under setting [2] was “inactive; negative”; the mutagenic call (Test System: AMES SALMONELLA TYPHIMURIUM, Strain/Indicator: TA100, Metabolic Activation: RAT LIVER S-9, PHENOBARBITAL AND 5,6-BENZOFLAVONE, Method: PREINCUBATION) was “inactive; negative”; the mutagenic call under setting [3] was “inactive; negative”; the mutagenic call (Test System: AMES SALMONELLA TYPHIMURIUM, Strain/Indicator: TA1535, Metabolic Activation: RAT LIVER S-9, PHENOBARBITAL AND 5,6-BENZOFLAVONE, Method: PREINCUBATION) is “inactive; negative”. Moreover, the mutagenic call by setting is: under setting [4], “inactive; negative”; (Test System: AMES SALMONELLA TYPHIMURIUM, Strain/Indicator: TA1537, Metabolic Activation: RAT LIVER S-9, PHENOBARBITAL AND 5,6-BENZOFLAVONE, Method: PREINCUBATION) “inactive; negative”; (Test System: E.COLI, Strain/Indicator: WP2 UVRA, Metabolic Activation: NONE, Method: PREINCUBATION) “inactive; negative”; (Test System: E.COLI, Strain/Indicator: WP2 UVRA, Metabolic Activation: RAT LIVER S-9, PHENOBARBITAL AND 5,6-BENZOFLAVONE, Method: PREINCUBATION) “inactive; negative”.

For `c1ccc(OC2CO2)cc1` (stereo unspecified), the mutagenic call is, setting by setting: (Test System: AMES SALMONELLA TYPHIMURIUM, Strain/Indicator: TA98, Metabolic Activation: RAT LIVER MICROSOMES, Method: STANDARD PLATE) “active; positive”; (Test System: AMES SALMONELLA TYPHIMURIUM, Strain/Indicator: TA1535, Metabolic Activation: RAT LIVER MICROSOMES, Method: STANDARD PLATE) “active; positive”.

Consider `COc1ccc2c(c1)[C@@H]1CCCC[C@H]1C=C2`, for which the mutagenic call is, setting by setting: (Test System: AMES SALMONELLA TYPHIMURIUM, Strain/Indicator: TA98, Metabolic Activation: RAT, LIVER, S-9, SODIUM PHENOBARBITAL AND BETA-NAPHTHOFLAVONE, Method: STANDARD PLATE) “active; positive”; (Test System: AMES SALMONELLA TYPHIMURIUM, Strain/Indicator: TA100, Metabolic Activation: RAT, LIVER, S-9, SODIUM PHEOBARBITAL AND BETA-NAPHTHOFLAVONE, Method: STANDARD PLATE) “active; positive”.

On to `Nc1c2ccccc2nc2ccc(O)cc12`, for which the mutagenic call under setting [4] is “active; positive”.

Take `CCN(CC)c1ccc(C(=C2C=CC(=[N+](CC)CC)C=C2)c2ccc(N(CC)CC)cc2)cc1`: the mutagenic call (Test System: AMES SALMONELLA TYPHIMURIUM, Strain/Indicator: TA98, Metabolic Activation: HAMSTER, LIVER, S-9, AROCLOR 1254 (10%), Method: STANDARD PLATE) was “inactive; negative”; the mutagenic call under setting [5] was “inactive; negative”; the mutagenic call (Test System: AMES SALMONELLA TYPHIMURIUM, Strain/Indicator: TA98, Metabolic Activation: RAT, LIVER, S-9, AROCLOR 1254 (10%), Method: STANDARD PLATE) was “inactive; negative”; the mutagenic call (Test System: AMES SALMONELLA TYPHIMURIUM, Strain/Indicator: TA100, Metabolic Activation: HAMSTER, LIVER, S-9, AROCLOR 1254 (10%), Method: STANDARD PLATE) is “inactive; negative”; the mutagenic call under setting [6] was “inactive; negative”; the mutagenic call (Test System: AMES SALMONELLA TYPHIMURIUM, Strain/Indicator: TA100, Metabolic Activation: RAT, LIVER, S-9, AROCLOR 1254 (10%), Method: STANDARD PLATE) is “inactive; negative”. In addition, the mutagenic call runs as follows: (Test System: AMES SALMONELLA TYPHIMURIUM, Strain/Indicator: TA1535, Metabolic Activation: NONE, Method: STANDARD PLATE) “inactive; negative”; (Test System: AMES SALMONELLA TYPHIMURIUM, Strain/Indicator: TA1535, Metabolic Activation: RAT, LIVER, S-9, AROCLOR 1254 (10%), Method: STANDARD PLATE) “inactive; negative”; (Test System: AMES SALMONELLA TYPHIMURIUM, Strain/Indicator: TA1537, Metabolic Activation: HAMSTER, LIVER, S-9, AROCLOR 1254 (10%), Method: STANDARD PLATE) “inactive; negative”; (Test System: AMES SALMONELLA TYPHIMURIUM, Strain/Indicator: TA1537, Metabolic Activation: NONE, Method: STANDARD PLATE) “inactive; negative”; (Test System: AMES SALMONELLA TYPHIMURIUM, Strain/Indicator: TA1537, Metabolic Activation: RAT, LIVER, S-9, AROCLOR 1254 (10%), Method: STANDARD PLATE) “inactive; negative”; (Test System: AMES SALMONELLA TYPHIMURIUM, Strain/Indicator: TA1538, Metabolic Activation: HAMSTER, LIVER, S-9, AROCLOR 1254 (10%), Method: STANDARD PLATE) “inactive; negative”. In addition, the mutagenic call runs as follows: (Test System: AMES SALMONELLA TYPHIMURIUM, Strain/Indicator: TA1538, Metabolic Activation: NONE, Method: STANDARD PLATE) “inactive; negative”; (Test System: AMES SALMONELLA TYPHIMURIUM, Strain/Indicator: TA1538, Metabolic Activation: RAT, LIVER, S-9, AROCLOR 1254 (10%), Method: STANDARD PLATE) “inactive; negative”; (Test System: Mouse lymphoma, Strain/Indicator: L5178Y (tk+/tk-), Metabolic Activation: None, Method: Suspension/plate) “inactive; negative”; (Test System: Mouse lymphoma, Strain/Indicator: L5178Y (tk+/tk-), Metabolic Activation: Rat, Liver, S-9, Aroclor 1254, Method: Suspension/plate) “inactive; inconclusive (previous results negative)”.

As to `COc1cc(OC)c2c(=O)c3cc(OC)ccc3oc2c1`, the mutagenic call was “active; positive” (Test System: AMES SALMONELLA TYPHIMURIUM, Strain/Indicator: TA97, Metabolic Activation: RAT, LIVER, S-9, PHENOBARBITAL AND 5,6-BENZOFLAVONE, Method: PREINCUBATION); “inactive; negative” under setting [7]; “active; positive” under setting [8]; “active; positive” (Test System: AMES SALMONELLA TYPHIMURIUM, Strain/Indicator: TA2637, Metabolic Activation: NONE, Method: PREINCUBATION); “active; positive” (Test System: AMES SALMONELLA TYPHIMURIUM, Strain/Indicator: TA2637, Metabolic Activation: RAT, LIVER, S-9, PHENOBARBITAL AND 5,6-BENZOFLAVONE, Method: PREINCUBATION).

For `Cc1ccc2cc3c(c4c2c1CC4)C1NC1c1ccccc1-3` (stereo unspecified), the mutagenic call reads like this: under setting [5], “active; positive”; under setting [6], “active; positive”.

Take `COC(=O)C1=C(C)NC(C)=C(C(=O)OCCc2ccc(N3CCN(C(c4ccccc4)c4ccccc4)CC3)cc2)C1c1cccc([N+](=O)[O-])c1` (stereo unspecified): the mutagenic call is, setting by setting: under setting [1], “inactive; negative”; under setting [7], “inactive; negative”; under setting [2], “inactive; negative”; under setting [8], “inactive; negative”; under setting [3], “inactive; negative”; (Test System: AMES SALMONELLA TYPHIMURIUM, Strain/Indicator: TA1535, Metabolic Activation: RAT, LIVER, S-9, PHENOBARBITAL AND 5,6-BENZOFLAVONE, Method: PREINCUBATION) “inactive; negative”. The mutagenic call is “inactive; negative” under setting [4]; “inactive; negative” (Test System: AMES SALMONELLA TYPHIMURIUM, Strain/Indicator: TA1537, Metabolic Activation: RAT, LIVER, S-9, PHENOBARBITAL AND 5,6-BENZOFLAVONE, Method: PREINCUBATION); “inactive; negative” (Test System: E. COLI, Strain/Indicator: WP2 UVRA, Metabolic Activation: NONE, Method: PREINCUBATION); “inactive; negative” (Test System: E. COLI, Strain/Indicator: WP2 UVRA, Metabolic Activation: RAT, LIVER, S-9, PHENOBARBITAL AND 5,6-BENZOFLAVONE, Method: PREINCUBATION).

`CN1C[C@@H](O)c2cc3c(c4c2[C@H]1Cc1ccccc1-4)OCO3`: the mutagenic call reads like this: (Test System: AMES SALMONELLA TYPHIMURIUM, Strain/Indicator: TA98, Metabolic Activation: RAT, LIVER, S-9, PHENOBARBITAL AND BETA-NAPHTHOFLAVONE, Method: PREINCUBATION) “active; positive”; (Test System: AMES SALMONELLA TYPHIMURIUM, Strain/Indicator: TA100, Metabolic Activation: RAT, LIVER, S-9, PHENOBARBITAL AND BETA-NAPHTHOFLAVONE, Method: PREINCUBATION) “active; positive”.

Consider `O=NN(c1ccc(C(=O)O)cc1)C1OC[C@@H](O)[C@@H](O)[C@@H]1O` (stereo partly specified), for which the mutagenic call (Test System: AMES SALMONELLA TYPHIMURIUM, Strain/Indicator: TA100, Metabolic Activation: NONE, Method: LIQUID INCUBATION) is “active; positive”.

The record behind these values is PubChem BioAssay AID1259407 (Chemical Carcinogenesis Research Information System (CCRIS), 2018).
